The NIST ThermoML archive (doi:10.1021/je0501843)

Assay: wn = mass fraction of the nth substance listed
Conditions: Fluid (supercritical or subcritical phases), isochoric method, w1 = 0.5001

FC(F)C(F)(F)F [pentafluoroethane] + FCF
Conditions	mass density [kg/m3]
363 K, 13894 kPa	858.1
364 K, 6970 kPa	475.8
364 K, 7223 kPa	525.7
364 K, 7494 kPa	571.2
364 K, 7828 kPa	614.6
364 K, 10192 kPa	760.2
364 K, 14207 kPa	858
365 K, 7077 kPa	475.8
365 K, 7344 kPa	525.7
365 K, 7632 kPa	571.2
365 K, 7982 kPa	614.6
365 K, 10427 kPa	760.1
365 K, 14520 kPa	857.9
366 K, 7184 kPa	475.8
366 K, 7465 kPa	525.6
366 K, 7771 kPa	571.1
366 K, 8137 kPa	614.5
366 K, 10664 kPa	760
366 K, 14835 kPa	857.8
367 K, 7291 kPa	475.8
367 K, 7587 kPa	525.6
367 K, 7907 kPa	571.1
367 K, 8294 kPa	614.5
367 K, 10900 kPa	760
367 K, 15148 kPa	857.7
368 K, 7397 kPa	475.8
368 K, 7708 kPa	525.6
368 K, 8044 kPa	571.1
368 K, 8449 kPa	614.5
368 K, 11133 kPa	759.9
368 K, 15462 kPa	857.7
369 K, 7504 kPa	475.7
369 K, 7831 kPa	525.6
369 K, 8183 kPa	571
369 K, 8605 kPa	614.4
369 K, 11369 kPa	759.9
369 K, 15777 kPa	857.6
370 K, 7612 kPa	475.7
370 K, 7953 kPa	525.5
370 K, 8323 kPa	571
370 K, 8762 kPa	614.4
370 K, 11608 kPa	759.8
370 K, 16094 kPa	857.5
371 K, 7719 kPa	475.7
371 K, 8075 kPa	525.5
371 K, 8460 kPa	571
371 K, 8917 kPa	614.3
371 K, 11844 kPa	759.7
371 K, 16410 kPa	857.4
372 K, 7825 kPa	475.7
372 K, 8198 kPa	525.5
372 K, 8601 kPa	571
372 K, 9073 kPa	614.3
372 K, 12081 kPa	759.7
372 K, 16724 kPa	857.4
373 K, 7931 kPa	475.7
373 K, 8321 kPa	525.5
373 K, 8740 kPa	570.9
373 K, 9230 kPa	614.3
373 K, 12318 kPa	759.6
373 K, 17037 kPa	857.3
374 K, 8039 kPa	475.6
374 K, 8445 kPa	525.4
374 K, 8878 kPa	570.9
374 K, 9389 kPa	614.2
374 K, 12556 kPa	759.6
374 K, 17355 kPa	857.2
375 K, 8147 kPa	475.6
375 K, 8567 kPa	525.4
375 K, 9016 kPa	570.9
375 K, 9544 kPa	614.2
375 K, 12795 kPa	759.5
375 K, 17669 kPa	857.1
376 K, 8254 kPa	475.6
376 K, 8690 kPa	525.4
376 K, 9155 kPa	570.8
376 K, 9701 kPa	614.2
376 K, 13033 kPa	759.5
376 K, 17984 kPa	857.1
377 K, 8362 kPa	475.6
377 K, 8813 kPa	525.4
377 K, 9295 kPa	570.8
377 K, 9858 kPa	614.1
377 K, 13272 kPa	759.4
377 K, 18301 kPa	857
378 K, 8469 kPa	475.6
378 K, 8937 kPa	525.3
378 K, 9437 kPa	570.8
378 K, 10018 kPa	614.1
378 K, 13511 kPa	759.3
378 K, 18619 kPa	856.9
379 K, 8575 kPa	475.5
379 K, 9060 kPa	525.3
379 K, 9576 kPa	570.7
379 K, 10174 kPa	614
379 K, 13747 kPa	759.3
379 K, 18935 kPa	856.8
380 K, 8683 kPa	475.5
380 K, 9183 kPa	525.3
380 K, 9715 kPa	570.7
380 K, 10331 kPa	614
380 K, 13988 kPa	759.2
381 K, 8790 kPa	475.5
381 K, 9306 kPa	525.2
381 K, 9856 kPa	570.7
381 K, 10492 kPa	614
381 K, 14227 kPa	759.2
382 K, 8897 kPa	475.5
382 K, 9432 kPa	525.2
382 K, 9996 kPa	570.6
382 K, 10651 kPa	613.9
382 K, 14466 kPa	759.1
383 K, 9005 kPa	475.4
383 K, 9553 kPa	525.2
383 K, 10136 kPa	570.6
383 K, 10808 kPa	613.9
383 K, 14706 kPa	759
384 K, 9112 kPa	475.4
384 K, 9679 kPa	525.2
384 K, 10277 kPa	570.6
384 K, 10967 kPa	613.8
384 K, 14944 kPa	759
385 K, 9219 kPa	475.4
385 K, 9804 kPa	525.1
385 K, 10418 kPa	570.5
385 K, 11125 kPa	613.8
385 K, 15188 kPa	758.9
386 K, 9326 kPa	475.4
386 K, 9929 kPa	525.1
386 K, 10558 kPa	570.5
386 K, 11283 kPa	613.8
386 K, 15426 kPa	758.9
387 K, 9434 kPa	475.3
387 K, 10051 kPa	525.1
387 K, 10699 kPa	570.5
387 K, 11442 kPa	613.7
387 K, 15666 kPa	758.8
388 K, 9540 kPa	475.3
388 K, 10174 kPa	525
388 K, 10840 kPa	570.4
388 K, 11602 kPa	613.7
388 K, 15904 kPa	758.7
389 K, 9649 kPa	475.3
389 K, 10296 kPa	525
389 K, 10980 kPa	570.4
389 K, 11761 kPa	613.6
389 K, 16147 kPa	758.7
390 K, 9756 kPa	475.3
390 K, 10421 kPa	525
390 K, 11124 kPa	570.3
390 K, 11922 kPa	613.6
390 K, 16388 kPa	758.6
391 K, 9862 kPa	475.2
391 K, 10547 kPa	524.9
391 K, 11263 kPa	570.3
391 K, 12081 kPa	613.6
391 K, 16627 kPa	758.6
392 K, 9969 kPa	475.2
392 K, 10670 kPa	524.9
392 K, 11403 kPa	570.3
392 K, 12239 kPa	613.5
392 K, 16868 kPa	758.5
393 K, 10077 kPa	475.2
393 K, 10795 kPa	524.9
393 K, 11546 kPa	570.2
393 K, 12400 kPa	613.5
393 K, 17110 kPa	758.4
394 K, 10185 kPa	475.2
394 K, 10920 kPa	524.9
394 K, 11688 kPa	570.2
394 K, 12560 kPa	613.4
394 K, 17351 kPa	758.4
395 K, 10292 kPa	475.1
395 K, 11045 kPa	524.8
395 K, 11829 kPa	570.2
395 K, 12720 kPa	613.4
395 K, 17590 kPa	758.3
396 K, 10400 kPa	475.1
396 K, 11168 kPa	524.8
396 K, 11972 kPa	570.1
396 K, 12880 kPa	613.4
396 K, 17831 kPa	758.3
397 K, 10508 kPa	475.1
397 K, 11292 kPa	524.8
397 K, 12113 kPa	570.1
397 K, 13040 kPa	613.3
397 K, 18073 kPa	758.2
398 K, 10616 kPa	475
398 K, 11415 kPa	524.7
398 K, 12256 kPa	570.1
398 K, 13199 kPa	613.3
398 K, 18315 kPa	758.1
399 K, 10723 kPa	475
399 K, 11538 kPa	524.7
399 K, 12395 kPa	570
399 K, 13361 kPa	613.2
399 K, 18556 kPa	758.1
